From patent US20260132172A1, “IN VITRO BIOSYNTHESIS OF DIVERSE PYRIDINE-BASED MACROCYCLIC PEPTIDES” (The Brd. of Trustees of the Univ. of Illinois, priority 2022, published 2026)

What was measured:
[1] = system: MroB/C; assay: MroB/C dehydration (Dha formation) of MroA precursor peptide variants, MALDI-TOF-MS / LC-MS/MS; type: biochemical, Micromonospora rosaria; conditions: for dehydration by MroBC (site and extent): MroBC assays followed by LC-MS/MS analysis, result in words; for Dha formation: MroA2 multi-site variants, in vitro translated, MALDI-TOF-MS
Description: In a 0.65 mL protein low-binding Eppendorf tube placed on ice. 0.75 μL of purified mroA variant template DNA was mixed with 0.75 μL of Solution B and 1 μL of Solution A of PURExpress In vitro Protein Synthesis Kit (E6800L) purchased from NEB (total volume of reaction is 2.5 μL). The translation reactions were performed at 37° C. for 1 h on an aluminum block.
For a full MroBCD substrate scope investigation, a total translation volume for each variant of 7.5 μL was performed. 1.5 μL of 90 mM iodoacetamide (IAA) was added to quench dithiothreitol (DTT) in the translation reaction mixture, a thiol-based nucleophile that can react with electrophilic dehydroalanines generated from MroBC-catalyzed dehydration assays. The translation product was split into two parts with these corresponding volumes: 3 μL and 6 μL. In the 6 μL part. 10.2 μL of the enzyme mix containing enzymes and cofactors was added along with 1.8 μL 90 mM ATP (pH 7.5), which was used to initiate the reaction. The enzyme mix was made by adding these components in the following order: HEPES pH 7.5, MgCl2, glutamate, T. bispora tRNA^Glu (CUC), thermostable inorganic pyrophosphatase (TIPP), TEV (L56V/S135G/S219V) (w/w ratio with a total amount of MBP-tagged protein=1:10), MBP-MroB, MBP-MroC, and T. bispora GluRS. The enzyme mix was incubated 25 min at room temperature before adding to the translation product to facilitate in situ TEV-catalyzed cleavage of MBP from MBP-MroB and MBP-MroC. The enzymatic reaction proceeded for 1 h at room temperature. Overall, the concentration of components in the 18 μL reaction mix is as follows: 50 mM HEPES pH 7.5, 5 mM MgCl2. L-glutamate 1 mM, 3 μM T. bispora tRNA^Glu, 1 μM T. bispora GluRS, 2 μM MBP-MroB, 2 μM MBP-MroC, […], 0.027 U/μL TIPP, and 5 mM IAA. In addition, the 3 μL part was incubated with the same buffer lacking enzymes and tRNA as a translation control.
The reactions were performed similarly as described above, with 10 μM substrate concentration and without IAA. The total volume of each reaction is 100 μL.
Enzymatic assays were desalted using solid-phase extraction prior to LC-ESI-MS/MS analysis. Specifically, except for the thiazol(in)es-containing pyritide (which utilize 8 mg Pierce C18 Spin Column), the samples were applied to Toptip C18 (10-200 μL, Glygen Corp) wetted with 50 μL of 80% acetonitrile (0.1% formic acid) and equilibrate with 150 μL of 0.1% formic acid following the manufacturer instructions. The C18 columns (tips) are then washed with 150 μL of 0.1% formic acid and eluted using 100 μL 80% acetonitrile (0.1% formic acid). The samples were then dried utilizing lyophilization and redissolved in 25% acetonitrile (80 μL for enzymatic assays of in vitro-translated substrates and 200 μL for enzymatic assays of purified substrates). Then 20 μL of each sample was injected into an Agilent AdvanceBio Peptide Plus column (2.1×150 mm, 2.7 μm) equipped with an Agilent 6545B Q-TOF interfaced with an Agilent 1290 Infinity II LC system. Mobile phase solvents were composed of H2O, 0.1% formic acid (Solvent A), and acetonitrile 0.1% formic acid (Solvent B). The column compartment was maintained at 35° C. during all experiments. The column was equilibrated with 5 column volumes of starting mobile phase (95% A and 5% B) between injections. The gradient of all LC runs was as follows: 0-2 min: 95% A 5% B, 2-3 min: 70% A 30% B, 3-18 min: 20% A 80% B, 18-20 min: 5% A 95% B. The samples were run to waste for the first 3 min before applying to the mass spectrometer. Mass range was set from 100 to 1700 m/z (except for 412MroA1 W7G: 100-3000 m/z). MS parameters were as follows: gas, 320° C. at 8 L/min: nebulizer, 35 psig: nozzle voltage, 1000 V: sheath gas, 350° C. at 11 L/min: capillary, 3500 V: fragmentor, 125 V: skimmer, 65 V: MS scan rate (10) spectra/s): MS-MS scan rate (5 spectra/s); and isolation width (MS/MS), 1.3 m z. […]

[2] = system: MroD; assay: MroD [4+2] macrocyclization of didehydrated MroA2 variants, MALDI-TOF-MS; type: biochemical, Micromonospora rosaria; set-up: key: +++ indicates enzyme activity roughly equal to wild-type MroA2; ++ indicates modestly reduced enzyme activity; + indicates severely reduced enzyme activity; − indicates no detectable enzyme activity (no macrocycles observed); conditions: MroA2 multi-site variants; qualitatively estimated from leader peptide vs remaining didehydrated intermediate
Description: After incubation, the enzyme reaction (18 μL) was split into two equal parts. One part was treated with MBP-MroD such that the final concentration of MBP-MroD is 3 μM, and the other part was added the same volume but with buffer lacking MBP-MroD (50 mM HEPES, 300 mM NaCl, 2.5% glycerol, 0.5 mM TCEP). The reaction further proceeded for 1.5 h at room temperature. All reaction mixture was then desalted with solid-phase extraction using Ziptip with 0.6 μL C18 resin (EMD Millipore) and crystallized on an MTP384 steel target plate using either saturated sinapic acid or 50 mg/mL Super DHB [dissolved in 60% acetonitrile and 0.1% trifluoroacetic acid (TFA)] as the matrix. The crystallized spots were then analyzed using MALDI-TOF-MS (Bruker Ultraflex). The external standard for MALDI-TOF-MS analysis is ProteoMass Peptide and Protein MALDI-MS Calibration Kit (Sigma).

Substance	dehydration by MroBC (site and extent) [1]	Dha formation [1]	Relative MroD conversion [2]
MroA2-S1G/W8G: MroA2 variant (MRRRGSMDNVVTEAAEFADLDIVDLDLAVDEELAALSVGGLGNTEVGAGGFFGRSGLI)	inefficiently dehydrated at Ser7		
MroA2-S7G: MroA2 variant (MRRRGSMDNVVTEAAEFADLDIVDLDLAVDEELAALSVGGLGNTEVGASGFFGRGWLI)	went to completion		
MroA2-SIG: MroA2 variant (MRRRGSMDNVVTEAAEFADLDIVDLDLAVDEELAALSVGGLGNTEVGAGGFFGRSWLI)	went to completion		
S7G/110G: MroA2 variant (MRRRGSMDNVVTEAAEFADLDIVDLDLAVDEELAALSVGGLGNTEVGASGFFGRGWLG)	completely dehydrated at Ser1		
S7G/W8G: MroA2 variant (MRRRGSMDNVVTEAAEFADLDIVDLDLAVDEELAALSVGGLGNTEVGASGFFGRGGLI)	completely dehydrated at Ser1		
SGAGLNRSWLI [Number 17]		2 Dha	+++
SGAQQHSWLI [Number 13]		2 Dha	+++
SGAVRFNGSWLI [Number 36]		2 Dha	+
SGAWRSWLI [Number 6]		2 Dha	+++
SGDAMRWASWLI [Number 53]		2 Dha	
SGDDRDGGSWLI [Number 27]		Mix of 1, 2	+
SGDGWRSWLI [Number 18]		2 Dha	+++
SGEMHQHSWLI [Number 41]		Mix of 1, 2	+
SGERGMGKSWLI [Number 34]		2 Dha	+++
SGFDRAGHSWLI [Number 46]		2 Dha	+
SGFIRNASWLI [Number 31]		2 Dha	++
SGGRENSWLI [Number 11]		2 Dha	++
SGGWRVAHSWLI [Number 45]		2 Dha	+
SGGYRPRSWLI [Number 38-H7R]		2 Dha	+++

Substance	dehydration by MroBC (site and extent) [1]	Dha formation [1]	Relative MroD conversion [2]
SGHAAHSWLI [Number 7]		2 Dha	+++
SGHDNQARSWLI [Number 49]		2 Dha	+++
SGHQFKSWLI [Number 22]		2 Dha	+++
SGHWANSWLI [Number 15]		2 Dha	+++
SGIKNDASWLI [Number 23]		2 Dha	+++
SGIYHNSWLI [Number 20]		2 Dha	+++
SGKALERSWLI [Number 29-F7R]		Mix of 1,2	++
SGKAPGRSWLI [Number 16]		2 Dha	+++
SGKGKQASWLI [Number 19]		2 Dha	
SGKLGFSWLI [Number 10]		2 Dha	+
SGLGHSWLI [Number 1]		2 Dha	+
SGLKFYHSWLI [Number 44]		2 Dha	+++
SGMARYSWLI [Number 26]		2 Dha	+
SGMPRGSWLI [Number 8]		2 Dha	+++
SGNAWIKSWLI [Number 32]		2 Dha	+++
SGNERGSWLI [Number 9]		2 Dha	+++
SGNMHPGKSWLI [Number 40]		2 Dha	++
SGPKGSWLI [Number 5]		2 Dha	+++
SGPKRWGHSWLI [Number 51]		2 Dha	+

Substance	dehydration by MroBC (site and extent) [1]	Dha formation [1]	Relative MroD conversion [2]
SGPMHYSWLI [Number 21]		2 Dha	+++
SGPRANYSWLI [Number 30]		2 Dha	++
SGQDVANRSWLI [Number 43]		2 Dha	+++
SGQGRNRSWLI [Number 24-V7R]		2 Dha	+++
SGQGRNVSWLI [Number 24]		2 Dha	+
SGQPQRLGSWLI [Number 42]		2 Dha	+++
SGQYKFRSWLI [Number 48]		2 Dha	+++
SGREFANSWLI [Number 35]		2 Dha	+
SGREFARSWLI [Number 35-N7R]		2 Dha	+++
SGRGYALSWLI [Number 25]		2 Dha	++
SGRVALEASWLI [Number 37]		2 Dha	+
SGRYAGRSWLI [Number 39-W7R]		2 Dha	+++
SGRYHSWLI [Number 12]		2 Dha	+++
SGVKAWSWLI [Number 14]		2 Dha	+++
SGVKFSWLI [Number 3]		2 Dha	+
SGYANRAGSWLI [Number 33]		2 Dha	+++
SGYDRQRSWLI [Number 56-Y7R]		2 Dha	+++
SGYRRRAGSWLI [Number 50]		2 Dha	+++
